# Test results taken from patent US20240024273A1, “TOPICAL ADMINISTRATION OF 2-(DIETHYLAMINO)ETHYL 2-(4-ISOBUTYLPHENYL)PROPRIONATE FOR TREATMENT OF DISEASES” (TECHFIELDS PHARMA CO., LTD., priority 2020, published 2024).
# Experiments:
# Format in all cases: in vivo, human
# [1] = test system: osteoarthritis of the knee; test: Second Phase 2 study: Subject Global Impression of Change (SGIC); details: Week 12; for SGIC, Good and Very good / SGIC, Poor and Very Poor / SGIC, fair: all subjects
# From the text: (§1) 4.9.2. Secondary Efficacy Endpoints: • 1. Change from Baseline in the WOMAC (VAS) pain subscale score for the target knee at 2, 8, and 12 weeks of treatment; • 2. Change from Baseline in the WOMAC (VAS) stiffness subscale scores for the target knee and WOMAC (VAS) functional ability subscale scores at 2, 4, 8, and 12 weeks of treatment; • 3. Change from Baseline in the overall WOMAC (VAS) score at 2, 4, 8, and 12 weeks of treatment; • 4. Subject's global assessment of disease status of the target knee at 2, 4, 8, and 12 weeks of treatment; • 5. Subject's global assessment of response to therapy of the target knee at 2, 4, 8, and 12 weeks of treatment; • 6. Amount of rescue medication (acetaminophen) consumed per day for target knee pain.
# [2] = test system: osteoarthritis of the knee; test: Second Phase 2 study: Investigator's assessment of response to therapy (IART); details: Week 12; for IART: Good and Very good / IART: Poor and Very Poor / IART: fair: first 130 subjects; for IART, Good and Very good / IART, Poor and Very Poor / IART, fair: all subjects
# From the text: 4.9.3. Exploratory Efficacy Endpoints: • 1. Investigator's global assessment of response to therapy of the target knee at 2, 4, 8, and 12 weeks of treatment; • 2. Change from Baseline over time in overall WOMAC (VAS) score for the target knee after the treatment is stopped for 2 weeks.
# [3] = test system: osteoarthritis of the knee; test: Second Phase 2 study: WOMAC (VAS) pain subscale score
# From the text: This is a Phase 2, multicenter, randomized, double blind (within dose), Ibuprofen-placebo controlled, parallel group, dose range finding study to evaluate the efficacy, safety, and PK of 2-(diethylamino)ethyl 2-(4-isobutylphenyl)propionate spray in adult subjects with clinically symptomatic OA of the knee. For subjects with bilateral knee pain, both knees will be treated, but the most symptomatic knee (ie, the most painful knee as measured by the Western Ontario and McMaster University Osteoarthritis Index [WOMAC® 3.1] pain subscale score at Screening) will be designated as the target knee for efficacy analyses. For subjects with unilateral knee pain, only the symptomatic (target) knee will be treated.
# The VAS version of the WOMAC will be used for the Primary and Secondary Efficacy Endpoints. Efficacy endpoints will be assessed at Screening and Baseline (Day 1) and at the Week 2, Week 4, Week 8, and Week 12/EOS visits.
# The Primary Efficacy Endpoint is the change from Baseline in the WOMAC (VAS) pain subscale score for the target knee at […] of treatment.
# as §1
# The Primary Efficacy Endpoint is change from Baseline in the WOMAC (VAS) pain subscale score for the target knee at 4 weeks of treatment, and will be analyzed using an analysis of covariance (ANCOVA). Treatment will be included as a fixed class effect and WOMAC Baseline pain subscale score as covariates. The primary comparisons of interest will be the difference between active Group A (4.375 mg 2-(diethylamino)ethyl 2-(4-isobutylphenyl)propionate/knee) and combined placebo, active Group B (8.75 mg 2-(diethylamino)ethyl 2-(4-isobutylphenyl)propionate/knee) and combined placebo, and active Group C (17.5 mg 2-(diethylamino)ethyl 2-(4-isobutylphenyl)propionate/knee) and combined placebo.
# [4] = 4.375 mg/knee BID (n = 23), first 130 subjects
# [5] = 8.75 mg/knee BID (n = 24), first 130 subjects
# [6] = 17.5 mg/knee BID (n = 19), first 130 subjects
# [7] = 17.5 mg/knee BID, Week 12, first 130 subjects
# [8] = Week 12, 4.375 mg/knee BID (n = 23), first 130 subjects
# [9] = Week 12, 8.75 mg/knee BID (n = 24), first 130 subjects
# [10] = Week 12, 17.5 mg/knee BID (n = 19), first 130 subjects
structure (smiles),measurement,setting,value
CCN(CC)CCOC(=O)C(C)c1ccc(CC(C)C)cc1 (stereo not drawn) [2-(diethylamino)ethyl 2-(4-isobutylphenyl)propionate],Subject's satisfaction rate (SGIC good and very good),"[1]; 17.5 mg/knee BID, first 130 subjects",73.7%
same,SGIC: Good and Very good,[1]; [4],39.1%
same,SGIC: Poor and Very Poor,[1]; [4],4.3%
same,SGIC: fair,[1]; [4],56.5%
same,SGIC: Good and Very good,[1]; [5],37.5%
same,SGIC: Poor and Very Poor,[1]; [5],16.7%
same,SGIC: fair,[1]; [5],45.8%
same,SGIC: Good and Very good,[1]; [6],73.7%
same,SGIC: Poor and Very Poor,[1]; [6],5.3%
same,SGIC: fair,[1]; [6],21.1%
same,"SGIC, Good and Very good","[1]; 4.375 mg/knee BID, n = 49",32.7%
same,"SGIC, Poor and Very Poor","[1]; 4.375 mg/knee BID, n = 49",10.2%
same,"SGIC, fair","[1]; 4.375 mg/knee BID, n = 49",57.1%
same,"SGIC, Good and Very good","[1]; 8.75 mg/knee BID, n = 54",46.3%
same,"SGIC, Poor and Very Poor","[1]; 8.75 mg/knee BID, n = 54",16.7%
same,"SGIC, fair","[1]; 8.75 mg/knee BID, n = 54",37.0%
same,"SGIC, Good and Very good","[1]; 17.5 mg/knee BID, n = 52",61.5%
same,"SGIC, Poor and Very Poor","[1]; 17.5 mg/knee BID, n = 52",5.8%
same,"SGIC, fair","[1]; 17.5 mg/knee BID, n = 52",32.7%
same,IART: Good and Very good,[2]; 4.375 mg/knee BID (n = 23),39.1%
same,IART: Poor and Very Poor,[2]; 4.375 mg/knee BID (n = 23),4.3%
same,IART: fair,[2]; 4.375 mg/knee BID (n = 23),56.5%
same,IART: Good and Very good,[2]; 8.75 mg/knee BID (n = 24),37.5%
same,IART: Poor and Very Poor,[2]; 8.75 mg/knee BID (n = 24),12.5%
same,IART: fair,[2]; 8.75 mg/knee BID (n = 24),50.0%
same,IART: Good and Very good,[2]; 17.5 mg/knee BID (n = 19),57.9%
same,IART: Poor and Very Poor,[2]; 17.5 mg/knee BID (n = 19),5.3%
same,IART: fair,[2]; 17.5 mg/knee BID (n = 19),36.8%
same,"IART, Good and Very good","[2]; 4.375 mg/knee BID, n = 49",40.8%
same,"IART, Poor and Very Poor","[2]; 4.375 mg/knee BID, n = 49",10.2%
same,"IART, fair","[2]; 4.375 mg/knee BID, n = 49",49.0%
same,"IART, Good and Very good","[2]; 8.75 mg/knee BID, n = 54",50.0%
same,"IART, Poor and Very Poor","[2]; 8.75 mg/knee BID, n = 54",13.0%
same,"IART, fair","[2]; 8.75 mg/knee BID, n = 54",37.0%
same,"IART, Good and Very good","[2]; 17.5 mg/knee BID, n = 52",61.5%
same,"IART, Poor and Very Poor","[2]; 17.5 mg/knee BID, n = 52",3.8%
same,"IART, fair","[2]; 17.5 mg/knee BID, n = 52",34.6%
same,"WOMAC pain, difference from oral ibuprofen (3×400 mg/day)",[3]; [7],−14.5 mm
same,"WOMAC pain, difference from placebo",[3]; [7],−15.0 mm
same,"WOMAC Pain Subscale Score, Day 1, Avg.","[3]; Avg. of all patients, blinded, Middle Dose (4 spray/knee, 17.5 mg/knee) Cohort, Day 1",61.0
same,"WOMAC Pain Subscale Score, Follow-up, Avg.","[3]; Avg. of all patients, blinded, Middle Dose (4 spray/knee, 17.5 mg/knee) Cohort, Follow-up",38.9
same,"WOMAC Pain Subscale Score, Week 2, Avg.","[3]; Avg. of all patients, blinded, Middle Dose (4 spray/knee, 17.5 mg/knee) Cohort, Week 2",46.0
same,"WOMAC Pain Subscale Score, Week 4, Avg.","[3]; Avg. of all patients, blinded, Middle Dose (4 spray/knee, 17.5 mg/knee) Cohort, Week 4",40.5
same,"WOMAC Pain Subscale Score, Week 8, Avg.","[3]; Avg. of all patients, blinded, Middle Dose (4 spray/knee, 17.5 mg/knee) Cohort, Week 8",35.9
same,"WOMAC Pain Subscale Score, Week 12, Avg.","[3]; Avg. of all patients, blinded, Middle Dose (4 spray/knee, 17.5 mg/knee) Cohort, Week 12",34.5
same,"WOMAC Pain Subscale Scores, Baseline (LS Mean)",[3]; [4],60.0 mm
same,"WOMAC Pain Subscale Scores, Baseline (LS Mean)",[3]; [5],61.0 mm
same,"WOMAC Pain Subscale Scores, Baseline (LS Mean)",[3]; [6],64.1 mm
same,"WOMAC Pain Subscale Scores, % of improvement from Oral Ibuprofen",[3]; [8],−9.6%
same,"WOMAC Pain Subscale Scores, % of improvement from Placebo",[3]; [8],−8.7%
same,"WOMAC Pain Subscale Scores, % of improvement from baseline",[3]; [8],−41.8%
same,"WOMAC Pain Subscale Scores, Changes from Baseline (LS Mean)",[3]; [8],−25.7 mm
same,"WOMAC Pain Subscale Scores, Different from oral ibuprofen (LS Mean)",[3]; [8],−4.0 mm
same,"WOMAC Pain Subscale Scores, Different from placebo (LS Mean)",[3]; [8],−4.3 mm
same,"WOMAC Pain Subscale Scores, Week 12 (LS Mean)",[3]; [8],34.3 mm
same,"WOMAC Pain Subscale Scores, % of improvement from Oral Ibuprofen",[3]; [9],−13.2%
same,"WOMAC Pain Subscale Scores, % of improvement from Placebo",[3]; [9],−12.3%
same,"WOMAC Pain Subscale Scores, % of improvement from baseline",[3]; [9],−45.4%
same,"WOMAC Pain Subscale Scores, Changes from Baseline (LS Mean)",[3]; [9],−27.7 mm
same,"WOMAC Pain Subscale Scores, Different from oral ibuprofen (LS Mean)",[3]; [9],−6.1 mm
same,"WOMAC Pain Subscale Scores, Different from placebo (LS Mean)",[3]; [9],−6.6 mm
same,"WOMAC Pain Subscale Scores, Week 12 (LS Mean)",[3]; [9],33.3 mm
same,"WOMAC Pain Subscale Scores, % of improvement from Oral Ibuprofen",[3]; [10],−24.3%
same,"WOMAC Pain Subscale Scores, % of improvement from Placebo",[3]; [10],−23.4%
same,"WOMAC Pain Subscale Scores, % of improvement from baseline",[3]; [10],−56.5%
same,"WOMAC Pain Subscale Scores, Changes from Baseline (LS Mean)",[3]; [10],−36.2 mm
